Data reported in ChEMBL document CHEMBL1177735, “Amaryllidaceae alkaloids belonging to different structural subgroups display activity against apoptosis-resistant cancer cells” (J Nat Prod, 2010).
pIC50: −log10 of the molar value. Counter-ions that a name gives are not always drawn.

Key:
[1] = Cytotoxicity against human U373 cells after 72 hrs by MTT colorimetric assay; format: functional, cell-based, U-373MG ATCC; details: U373 MG
SK-MEL = test: Cytotoxicity against human SK-MEL cells after 72 hrs by MTT colorimetric assay; format: functional, cell-based
B16-F10 = test: Cytotoxicity against mouse B16F10 cells after 72 hrs by MTT colorimetric assay; format: functional, cell-based; details: B16-F10, 72 h
A549 = test: Cytotoxicity against human A549 cells after 72 hrs by MTT colorimetric assay; format: functional, cell-based; details: A549, 72 h
[2] = Cytotoxicity against human Hs683 cells after 72 hrs by MTT colorimetric assay; format: functional, cell-based; details: Hs 683, 72 h
[3] = Cytotoxicity against human OE21 cells after 72 hrs by MTT colorimetric assay; format: functional, cell-based; details: OE21, 72 h

| SMILES | pIC50 [1] | pIC50 (SK-MEL) | pIC50 (B16-F10) | pIC50 (A549) | pIC50 [2] | pIC50 [3] |
| --- | --- | --- | --- | --- | --- | --- |
| COC1C=C[C@@]23CCN(Cc4cc5c(cc42)OCO5)[C@@H]3C1 (stereo partly specified) | < 5.00 | < 5.00 | < 5.00 | < 5.00 | < 5.00 | 4.01 |
| CO[C@@H]1C=C[C@@]23c4cc5c(cc4CN(C[C@@H]2O)[C@H]3C1)OCO5 [(+)-HAEMANTHAMINE] | 5.11 | 5.07 | 5.17 | 5.35 | 5.15 | 5.17 |
| COC1=C[C@@H]2CCN3Cc4cc5c(cc4[C@@H]([C@H]23)[C@@H]1O)OCO5 [AMARBELLISINE] | 5.14 | 5.08 |  |  | 5.09 | 5.17 |
| COc1c2c(cc3c1OCO3)[C@]13C=C[C@H](OC)C[C@H]1N(C2)C[C@@H]3O [AMBELLINE] | < 5.00 | < 5.00 | < 5.00 | < 5.00 | < 5.00 | 4.07 |
| COc1c2c(cc3c1OCO3)[C@@]13CCN(C2)[C@@H]1CC=C[C@H]3O [BUPHANAMINE] | < 5.00 | < 5.00 | < 5.00 | < 5.00 | < 5.00 | < 5.00 |
| O[C@@H]1CC=C2CCN3Cc4cc5c(cc4[C@H]1[C@@H]23)OCO5 [CARANINE] | < 5.00 | < 5.00 | < 5.00 | < 5.00 | < 5.00 | < 5.00 |
| CN1CC[C@@H]2C[C@H](O)[C@@H]3OC(=O)c4cc5c(cc4[C@H]3[C@@H]21)OCO5 [CLIVONINE HYDROCHLORIDE] | < 5.00 | < 5.00 | < 5.00 | < 5.00 | < 5.00 | < 5.00 |
| COc1cc2c(cc1OC)[C@@H]1[C@H](O)[C@@H](OC)C=C3CCN(C2)[C@H]31 [GALANTHINE] | < 5.00 | < 5.00 | < 5.00 | < 5.00 | < 5.00 | < 5.00 |
| CO[C@@H]1C=C[C@@]23c4cc5c(cc4[C@@H](O)N(C[C@H]2O)[C@H]3C1)OCO5 [HAEMANTHIDINE] | 5.42 | 5.38 | 5.51 | 5.40 | 5.37 | 5.43 |
| O[C@H]1[C@H]2c3cc4c(cc3CN3CCC(=C[C@@H]1O)[C@H]23)OCO4 [LYCORINE] | 5.12 | 5.08 |  | 5.38 | 5.16 | 5.35 |
| CC(O)CC(=O)O[C@H]1C[C@H]2CCN(C)[C@H]2[C@@H]2c3cc4c(cc3C(=O)O[C@H]21)OCO4 (stereo partly specified) [NOBILISITINE B] | < 5.00 | < 5.00 | < 5.00 | < 5.00 | < 5.00 | < 5.00 |
| COc1cc2c(cc1O)CN1CCC3=CC[C@@H](O)[C@@H]2[C@@H]31 [NORPLUVINE] | < 5.00 | < 5.00 | < 5.00 | < 5.00 | < 5.00 | < 5.00 |
| COc1cc2c(cc1O)[C@@H]1[C@H](O)[C@@H](O)C=C3CCN(C2)[C@H]31 [PSEUDOLYCORINE] | 5.11 | < 5.00 |  | 5.13 | 5.10 | 5.10 |
| CO[C@@H]1C=C[C@@]23c4cc5c(cc4CO[C@]2(O)CN(C)[C@H]3C1)OCO5 [TAZETTINE] | < 5.00 | < 5.00 | < 5.00 | < 5.00 | < 5.00 | 4.11 |
| [O-]c1cc2c3c(c1)c1cc4c(cc1c[n+]3CC2)OCO4 [UNGEREMINE] | 4.08 | < 5.00 | < 5.00 | < 5.00 | < 5.00 | < 5.00 |
